Data taken from PubChem BioAssay AID1919003 (Molecular Pharmacology Branch, DTP, NCI, 2023).

Test system: 786-0 complex spheroids with HUVEC/MSC, growth % test/control
Experiment: Anticancer human tumor 786-0 cell line growth inhibition [AhR];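 also: compound exposure lasted seven days before the read-out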
Conditions: for IC50: curve of first compound; for viability, T/C: stronger effect = lower value
Summary of the method: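 Complex tumor spheroids co-cultured with HUVEC and human MSC stroma; AhR antagonists tested in combination with standard-of-care and investigational agents. Top concentration at or near clinical Cmax (else 10 microM), half-log dilutions; growth expressed as percent test/control.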

[1] = second compound 0.1 µM, first compound 0.0316 µM
[2] = second compound 0.1 µM, first compound 0.1 µM
[3] = second compound 0.1 µM, first compound 0.316 µM
[4] = second compound 0.1 µM, first compound 1 µM
[5] = second compound 0.1 µM, first compound 3.16 µM
[6] = second compound 0.1 µM, first compound 10 µM
[7] = second compound 0.316 µM, first compound 0.0316 µM
[8] = second compound 0.316 µM, first compound 0.1 µM
[9] = second compound 0.316 µM, first compound 0.316 µM
[10] = second compound 0.316 µM, first compound 1 µM
[11] = second compound 0.316 µM, first compound 3.16 µM
[12] = second compound 0.316 µM, first compound 10 µM
[13] = second compound 1 µM, first compound 0.0316 µM
[14] = second compound 1 µM, first compound 0.1 µM
[15] = second compound 1 µM, first compound 0.316 µM
[16] = second compound 1 µM, first compound 1 µM
[17] = second compound 1 µM, first compound 3.16 µM
[18] = second compound 1 µM, first compound 10 µM
[19] = second compound 3.16 µM, first compound 0.0316 µM
[20] = second compound 3.16 µM, first compound 0.1 µM
[21] = second compound 3.16 µM, first compound 0.316 µM
[22] = second compound 3.16 µM, first compound 1 µM
[23] = second compound 3.16 µM, first compound 3.16 µM
[24] = second compound 3.16 µM, first compound 10 µM
[25] = second compound 10 µM, first compound 0.0316 µM
[26] = second compound 10 µM, first compound 0.1 µM
[27] = second compound 10 µM, first compound 0.316 µM
[28] = second compound 10 µM, first compound 1 µM
[29] = second compound 10 µM, first compound 3.16 µM
[30] = second compound 10 µM, first compound 10 µM

COc1cc(C2c3cc4c(cc3C(OC3OC5COC(C)OC5C(O)C3O)C3COC(=O)C23)OCO4)cc(OC)c1O (stereo not given) + Cc1ccccc1N=Nc1ccc(NC(=O)c2ccnn2C)c(C)c1
IC50 (second compound 0.1 µM): 937 nM | IC50 (second compound 0.316 µM): 873 nM | IC50 (second compound 1 µM): 1060 nM | IC50 (second compound 3.16 µM): 885 nM | IC50 (second compound 10 µM): 723 nM | viability, T/C [1]: 110% | viability, T/C [2]: 110% | viability, T/C [3]: 85.2% | viability, T/C [4]: 46.2% | viability, T/C [5]: 24.2% | viability, T/C [6]: 9.45% | viability, T/C [7]: 110% | viability, T/C [8]: 105% | viability, T/C [9]: 86.2% | viability, T/C [10]: 41.6% | viability, T/C [11]: 27.5% | viability, T/C [12]: 10.3% | viability, T/C [13]: 107% | viability, T/C [14]: 107% | viability, T/C [15]: 81.4% | viability, T/C [16]: 50.4% | viability, T/C [17]: 26.8% | viability, T/C [18]: 10.3% | viability, T/C [19]: 103% | viability, T/C [20]: 82.9% | viability, T/C [21]: 78% | viability, T/C [22]: 46.4% | viability, T/C [23]: 21.1% | viability, T/C [24]: 7.16% | viability, T/C [25]: 96.8% | viability, T/C [26]: 91.7% | viability, T/C [27]: 68.4% | viability, T/C [28]: 42.6% | viability, T/C [29]: 19.4% | viability, T/C [30]: 7%

COc1cccc2c1C(=O)c1c(O)c3c(c(O)c1C2=O)CC(O)(C(=O)CO)CC3OC1CC(N)C(O)C(C)O1 (stereo not given) + Cc1ccccc1N=Nc1ccc(NC(=O)c2ccnn2C)c(C)c1
IC50 (second compound 0.1 µM): 126 nM | IC50 (second compound 0.316 µM): 122 nM | IC50 (second compound 1 µM): 132 nM | IC50 (second compound 3.16 µM): 119 nM | IC50 (second compound 10 µM): 76.5 nM | viability, T/C [1]: 73.8% | viability, T/C [2]: 56.6% | viability, T/C [3]: 24.7% | viability, T/C [4]: 9.36% | viability, T/C [5]: 1.43% | viability, T/C [6]: 1.74% | viability, T/C [7]: 69.3% | viability, T/C [8]: 55.7% | viability, T/C [9]: 24.7% | viability, T/C [10]: 10.1% | viability, T/C [11]: 2.44% | viability, T/C [12]: 3.3% | viability, T/C [13]: 77.4% | viability, T/C [14]: 57.4% | viability, T/C [15]: 26.7% | viability, T/C [16]: 9.75% | viability, T/C [17]: 1.55% | viability, T/C [18]: 1.78% | viability, T/C [19]: 66.6% | viability, T/C [20]: 55.2% | viability, T/C [21]: 24.5% | viability, T/C [22]: 9.36% | viability, T/C [23]: 1.41% | viability, T/C [24]: 1.09% | viability, T/C [25]: 57.6% | viability, T/C [26]: 48.8% | viability, T/C [27]: 22.4% | viability, T/C [28]: 9.51% | viability, T/C [29]: 1.98% | viability, T/C [30]: 1.15%

Nc1ncn(C2CC(O)C(CO)O2)c(=O)n1 (stereo not given) + Cc1ccccc1N=Nc1ccc(NC(=O)c2ccnn2C)c(C)c1
IC50 (second compound 0.1 µM): > 1000 nM | IC50 (second compound 0.316 µM): > 1000 nM | IC50 (second compound 1 µM): > 1000 nM | IC50 (second compound 3.16 µM): > 1000 nM | IC50 (second compound 10 µM): > 1000 nM | viability, T/C (second compound 0.1 µM, first compound 0.00316 µM): 103% | viability, T/C (second compound 0.1 µM, first compound 0.01 µM): 114% | viability, T/C [1]: 105% | viability, T/C [2]: 101% | viability, T/C [3]: 98.3% | viability, T/C [4]: 90.6% | viability, T/C (second compound 0.316 µM, first compound 0.00316 µM): 105% | viability, T/C (second compound 0.316 µM, first compound 0.01 µM): 104% | viability, T/C [7]: 106% | viability, T/C [8]: 99.5% | viability, T/C [9]: 96.6% | viability, T/C [10]: 92.9% | viability, T/C (second compound 1 µM, first compound 0.00316 µM): 106% | viability, T/C (second compound 1 µM, first compound 0.01 µM): 112% | viability, T/C [13]: 105% | viability, T/C [14]: 104% | viability, T/C [15]: 95.2% | viability, T/C [16]: 94.5% | viability, T/C (second compound 3.16 µM, first compound 0.00316 µM): 104% | viability, T/C (second compound 3.16 µM, first compound 0.01 µM): 102% | viability, T/C [19]: 100% | viability, T/C [20]: 94.9% | viability, T/C [21]: 92.8% | viability, T/C [22]: 89.7% | viability, T/C (second compound 10 µM, first compound 0.00316 µM): 93.4% | viability, T/C (second compound 10 µM, first compound 0.01 µM): 95.3% | viability, T/C [25]: 91.3% | viability, T/C [26]: 87.1% | viability, T/C [27]: 83.2% | viability, T/C [28]: 77.2%
